Article PMC6858373 (Scientific Reports, 2019)
Read-outs that look alike come from different tables or passages of the source.

Legend:
[1] = target: T1, FGF14:Nav1.6 C-tail complex (Homo sapiens, UniProt Q92915+Q9UQD0); assay: Split-luciferase complementation assay (LCA) in Clone V double stable HEK293 cells; assay type: cell-based
T1 construct: polymerase chain reaction (PCR) amplification of the FGF14 open reading frame (nt 1–855); C-terminal fragment of Nav1.6 (amino acids 1763–1976) fused with CD4ΔC-tail (amino acids 1–395); expressed in transfected cells

[2] = target: full-length P. pyralis luciferase (Photinus pyralis, UniProt P08659, K549A/L550V/N119G/N50D/S548I); assay type: cell-based
[3] = system: Clone V cells
[4] = CC_NCI screening, LCA luminescence, biological replicate Set 1, normalized to on-plate 0.3% DMSO controls (n=16 per plate)
[5] = CC_NCI screening, LCA luminescence, biological replicate Set 2, normalized to on-plate 0.3% DMSO controls (n=16 per plate)
[6] = CC_NCI screening, LCA, biological replicate Set 1, normalized to on-plate 0.3% DMSO controls
[7] = CC_NCI screening, LCA, biological replicate Set 2, normalized to on-plate 0.3% DMSO controls
[8] = CC_NCI screening, average of Set 1 and Set 2, normalized to 0.3% DMSO controls
[9] = CC_NCI screening, full-length luciferase counter-screen luminescence, normalized to on-plate 0.3% DMSO controls
[10] = CC_NCI screening, full-length luciferase counter-screen, normalized to on-plate 0.3% DMSO controls
[11] = 30 µM, 384-well, average of primary screening (n = 2), vs on-plate 0.3% DMSO
[12] = CC_NCI screening, biological replicate Set 1, normalized to on-plate 0.3% DMSO controls
[13] = CC_NCI screening, biological replicate Set 1, normalized to on-plate 0.3% DMSO controls (n=16 per plate)
[14] = CC_NCI screening, biological replicate Set 2, normalized to on-plate 0.3% DMSO controls
[15] = CC_NCI screening, biological replicate Set 2, normalized to on-plate 0.3% DMSO controls (n=16 per plate)
[16] = average of Set 1 and Set 2, normalized to 0.3% DMSO controls
[17] = CC_NCI screening, normalized to on-plate 0.3% DMSO controls

Sequence of full-length P. pyralis luciferase (P08659 whole entry N50D/N119G/S548I/K549A/L550V, looked up): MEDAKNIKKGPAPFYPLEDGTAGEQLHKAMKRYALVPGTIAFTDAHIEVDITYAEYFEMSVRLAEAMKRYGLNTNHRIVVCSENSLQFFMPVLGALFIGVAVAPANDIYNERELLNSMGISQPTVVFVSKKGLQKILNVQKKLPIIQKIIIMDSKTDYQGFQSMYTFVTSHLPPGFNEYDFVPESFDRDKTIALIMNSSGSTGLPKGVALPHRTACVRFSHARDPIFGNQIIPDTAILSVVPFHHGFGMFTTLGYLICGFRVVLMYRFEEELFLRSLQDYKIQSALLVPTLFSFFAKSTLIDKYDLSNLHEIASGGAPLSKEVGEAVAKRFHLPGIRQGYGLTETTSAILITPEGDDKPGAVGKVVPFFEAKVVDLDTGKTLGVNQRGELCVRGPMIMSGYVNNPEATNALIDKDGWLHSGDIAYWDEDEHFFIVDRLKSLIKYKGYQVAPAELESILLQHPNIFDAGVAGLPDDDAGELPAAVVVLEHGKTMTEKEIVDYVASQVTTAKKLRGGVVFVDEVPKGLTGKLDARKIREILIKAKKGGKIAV
T1 sequence (Q92915 1-252 isoform Q92915-2): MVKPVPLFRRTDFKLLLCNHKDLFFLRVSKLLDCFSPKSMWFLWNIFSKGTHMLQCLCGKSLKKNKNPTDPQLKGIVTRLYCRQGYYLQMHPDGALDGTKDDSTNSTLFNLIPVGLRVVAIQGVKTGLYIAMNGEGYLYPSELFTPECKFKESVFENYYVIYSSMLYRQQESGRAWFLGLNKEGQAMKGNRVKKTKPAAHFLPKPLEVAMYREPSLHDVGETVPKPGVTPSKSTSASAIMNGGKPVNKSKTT
T1 sequence (Q9UQD0 1763-1976 limits assumed): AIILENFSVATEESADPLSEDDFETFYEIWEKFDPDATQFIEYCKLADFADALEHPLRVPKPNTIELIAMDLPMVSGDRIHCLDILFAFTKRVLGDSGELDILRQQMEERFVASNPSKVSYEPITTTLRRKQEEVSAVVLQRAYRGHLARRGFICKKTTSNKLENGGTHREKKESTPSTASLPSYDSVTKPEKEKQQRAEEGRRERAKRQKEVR

Compound	Split Luciferase Assay % Lum Set 1 [1, 4] [%]	Split Luciferase Assay %Lum Set 2 [1, 5] [%]	Split Luciferase Assay Z-score Set 1 [1, 6]	Split Luciferase Assay Z-score Set 2 [1, 7]	Split Luciferase Assay %Lum Avg [1, 8] [%]	Luciferase Assay % Lum [2, 9] [%]	Luciferase Assay Z-score [2, 10]	Toxicity Assay % Fluor ([3]; human, 16 h, 30 µM) [%]	Toxicity Assay Z-score ([3]; human, 16 h, 30 µM)	Toxicity Assay % Fluor [3] [%]	Toxicity Assay Z-score [3]	Split Luciferase Assay Z-score Set 1 [1, 12]	Split Luciferase Assay % Lum Set 1 [1, 13] [%]	Split Luciferase Assay Z-score Set 2 [1, 14]	Split Luciferase Assay %Lum Set 2 [1, 15] [%]	Split Luciferase Assay %Lum Avg [1, 16] [%]	Luciferase Assay % Lum (full-length luciferase counter-screen) [2, 17] [%]	Luciferase Assay Z-score (full-length luciferase counter-screen) [2, 17]	Toxicity Assay % Fluor (CTB cell viability fluorescence) [3] [%]	Toxicity Assay Z-score (CTB cell viability) [3]	further results
Nc1nc(F)nc2c1ncn2[C@@H]1O[C@H](COP(=O)(O)O)[C@@H](O)[C@@H]1O [Fludarabine phosphate]	112.30	119.64	0.99	1.60	115.97	119.94	2.55	95.37	-0.65	–	–	–	–	–	–	–	–	–	–	–	–
CCCCCCCCCCCCSc1nc2c([nH]1)c(=O)n(C)c(=O)n2C	112.30	118.60	0.99	1.51	115.45	103.16	0.40	–	–	93.89	-0.85	–	–	–	–	–	–	–	–	–	–
Nc1ncnc2c1c(-c1cnc3[nH]ccc3c1)nn2C1CCCC1 [PP121, reference compound]	–	–	–	–	–	–	–	–	–	–	–	-4.89	39.46	-3.40	58.26	48.86	124.27	3.11	111.23	1.57	Z-score (LCA primary screening) [1, 11]: −4.14; Z-score, full-length luciferase assay ([2]; 30 µM, 384-well plates, vs on-plate 0.3% DMSO): 3.11
C[S+]([O-])c1ccc(-c2nc(-c3ccncc3)c(-c3ccc(F)cc3)[nH]2)cc1 (centres unmarked) [SB 203580, reference compound]	–	–	–	–	–	–	–	95.56	-0.62	–	–	–	–	–	–	–	–	–	–	–	EMax (% Luminescence) [1]: 152.42 % Luminescence; Split Luciferase Assay %Lum Avg [1]: 152.42%; Split Luciferase Assay %Lum Set 2 [1]: 166.45%; Split Luciferase Assay Z-score Set 1 [1]: 3.10; Split Luciferase Assay Z-score Set 2 [1]: 5.41; Z-score (LCA primary screening) [1]: 4.25; dose-dependent behavior in LCA [1]: mild inhibition at lower concentrations (0.5–2 µM) and stimulation at higher concentrations; Luciferase Assay % Lum [2]: 80.35%; Luciferase Assay Z-score [2]: -2.52
COc1ccc(OC)c2c(=S)c3ccccc3[nH]c12 [NSC 625987]	–	–	–	–	–	–	–	–	–	–	–	-1.20	85.12	-1.20	85.31	85.21	78.37	-2.77	109.17	1.28	–
Cc1cc(Nc2ncc3cc(-c4c(Cl)cccc4Cl)c(=O)n(C)c3n2)ccc1F [PD 180970]	120.99	116.51	1.70	1.34	118.75	100.96	0.12	–	–	102.30	0.32	–	–	–	–	–	–	–	–	–	–
CC(C)C[C@H](NC(=O)[C@H](Cc1ccccc1)NC(=O)c1cnccn1)B(O)O [Bortezomib]	89.47	117.56	-0.85	1.43	103.51	83.42	-2.12	–	–	93.30	-0.94	–	–	–	–	–	–	–	–	–	–
CNC(=O)c1ccc(N2C(=S)N(c3ccc(C#N)c(C(F)(F)F)c3)C(=O)C2(C)C)cc1F [Enzalutamide]	94.90	98.83	-0.41	-0.10	96.87	–	–	90.81	-1.28	–	–	–	–	–	–	–	–	–	–	–	Luciferase Assay % Lum [2]: 80.08%; Luciferase Assay Z-score [2]: -2.55
O=c1[nH]nc(Sc2ncc([N+](=O)[O-])s2)n1-c1ccc2c(c1)OCCO2 [JNK INHIBITOR X]	–	–	–	–	–	–	–	–	–	–	–	-7.97	1.41	-7.88	3.12	2.27	4.80	-12.19	82.79	-2.41	–
CN[C@@H]1C[C@H]2O[C@@](C)([C@@H]1OC)n1c3ccccc3c3c4c(c5c6ccccc6n2c5c31)C(=O)NC4 [Staurosporine, reference compound]	23.16	14.56	-6.21	-6.95	18.86	101.58	0.20	–	–	–	–	–	–	–	–	–	–	–	–	–	Z-score (LCA primary screening) [1, 11]: −6.58; IMin (% Luminescence) ([1]; antagonists, Clone V cells, 384-well, normalized to DMSO): 18.86 % Luminescence; Toxicity Assay % Fluor ([3]; human): 82.83%; Toxicity Assay Z-score ([3]; human): -2.40
O=c1[nH]c(=O)n([C@H]2C[C@H](O)[C@@H](CO)O2)cc1F [Floxuridine, reference compound]	154.69	–	4.42	3.04	146.01	100.29	0.04	90.13	-1.38	–	–	–	–	–	–	–	–	–	–	–	Z-score (LCA primary screening) [1, 11]: 3.73; EMax (% Luminescence) ([1]; agonists, Clone V cells, 384-well, normalized to DMSO): 146.01 % Luminescence; EC50 ([1]; estimated, 8-point dose response 0.25-30 µM, n = 4 per concentration, library compounds, read-out: EC50): 2460 nM
Cc1nc(Nc2ncc(C(=O)Nc3c(C)cccc3Cl)s2)cc(N2CCN(CCO)CC2)n1 [Dasatinib]	92.73	79.06	-0.59	-1.70	85.90	84.22	-2.02	–	–	94.47	-0.77	–	–	–	–	–	–	–	–	–	–
O=C1NC(=O)/C(=C/c2ccc(-c3ccc(F)cc3O)o2)S1 [AS 252424]	–	–	–	–	–	–	–	–	–	–	–	-3.31	59.03	-4.84	40.57	49.80	69.90	-3.86	99.49	-0.07	–
